# Experimental data as given in patent US11208400B2, “Substituted 6-(1H-pyrazol-1-yl)pyrimidin-4-amine derivatives and uses thereof” (Bayer Aktiengesellschaft, priority 2016, dated 2021).
# Target: T1, human Npt2a (Homo sapiens, UniProt Q06495)
# T1 construct: expressed in transfected cells
# T1 sequence (Q06495 1-639): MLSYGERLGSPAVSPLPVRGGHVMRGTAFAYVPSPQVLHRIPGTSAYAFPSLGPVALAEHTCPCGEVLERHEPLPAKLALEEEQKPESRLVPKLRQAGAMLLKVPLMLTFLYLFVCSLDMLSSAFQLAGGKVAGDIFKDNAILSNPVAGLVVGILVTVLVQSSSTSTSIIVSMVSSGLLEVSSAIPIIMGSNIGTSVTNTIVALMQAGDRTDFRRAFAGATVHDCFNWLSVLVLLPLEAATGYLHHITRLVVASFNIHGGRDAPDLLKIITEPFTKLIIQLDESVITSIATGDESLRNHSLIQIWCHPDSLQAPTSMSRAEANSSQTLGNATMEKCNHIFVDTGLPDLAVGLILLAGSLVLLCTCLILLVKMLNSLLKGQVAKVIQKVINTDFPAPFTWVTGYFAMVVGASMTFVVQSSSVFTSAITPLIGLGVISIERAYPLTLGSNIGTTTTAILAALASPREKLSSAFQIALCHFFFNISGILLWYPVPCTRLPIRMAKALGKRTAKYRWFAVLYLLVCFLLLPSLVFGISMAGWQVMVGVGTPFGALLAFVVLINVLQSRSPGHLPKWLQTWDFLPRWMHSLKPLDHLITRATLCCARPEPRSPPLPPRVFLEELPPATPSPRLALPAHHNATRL
# Assay: Npt2a activity cell based assay, membrane potential dye, CHO T-REx hNpt2a cells
# Details: doxycycline-induced, depolarization by sodium phosphate influx, average or median values if tested more than once
# Outline: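 Cells were doxycycline-induced CHO T-REx hNpt2a, dye-loaded and pretreated 5 min at RT with 1 nM–50 μM compound in Na-free pH 7.4 buffer. IC50 was fit to the post/pre-trigger fluorescence ratio.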
row,Structure (SMILES),IC50 [nM]
1,"Cc1cc(C)n(-c2cc(Nc3nn(C)c(-c4ccc(F)cc4)c3Cl)ncn2)n1 [Example 91, N-[4-chloro-5-(4-fluorophenyl)-1-methyl-1H-pyrazol-3-yl]-6-(3,5-dimethyl-1H-pyrazol-1-yl)pyrimidin-4-amine]",5.73
2,"CCc1c(Nc2cc(-n3nc(C)c(CCO)c3C)ncn2)nn(C)c1-c1ccc(F)cc1 [Example 92, 2-[1-(6-{[4-ethyl-5-(4-fluorophenyl)-1-methyl-1H-pyrazol-3-yl]amino}pyrimidin-4-yl)-3,5-dimethyl-1H-pyrazol-4-yl]ethanol]",820
3,"Cc1cc(C(F)F)n(-c2cc(Nc3c(C)nn(-c4ccc(F)cc4)c3C)ncn2)n1 [Example 93, 6-[5-(difluoromethyl)-3-methyl-1H-pyrazol-1-yl]-N-[1-(4-fluorophenyl)-3,5-dimethyl-1H-pyrazol-4-yl]pyrimidin-4-amine]",29
4,"CCc1c(Nc2cc(-n3nc(CO)cc3C)ncn2)nn(C)c1-c1ccc(F)cc1 [Example 94, [1-(6-{[4-ethyl-5-(4-fluorophenyl)-1-methyl-1H-pyrazol-3-yl]amino}pyrimidin-4-yl)-5-methyl-1H-pyrazol-3-yl]methanol]",2500
5,"Cc1cc(C(F)F)n(-c2cc(Nc3nn(C)c(-c4ccc(F)cc4)c3C3CC3)ncn2)n1 [Example 95, N-[4-cyclopropyl-5-(4-fluorophenyl)-1-methyl-1H-pyrazol-3-yl]-6-[5-(difluoromethyl)-3-methyl-1H-pyrazol-1-yl]pyrimidin-4-amine]",63.5
6,"Cc1cc(C(F)F)n(-c2cc(Nc3c(C4CC4)c(-c4ccc(F)cc4)nn3C)ncn2)n1 [Example 96, N-[4-cyclopropyl-3-(4-fluorophenyl)-1-methyl-1H-pyrazol-5-yl]-6-[5-(difluoromethyl)-3-methyl-1H-pyrazol-1-yl]pyrimidin-4-amine]",110
7,"CCc1c(-c2ccc(F)cc2)nn(C)c1Nc1cc(-n2nc(C)c(Cl)c2C)ncn1 [Example 97, 6-(4-chloro-3,5-dimethyl-1H-pyrazol-1-yl)-N-[4-ethyl-3-(4-fluorophenyl)-1-methyl-1H-pyrazol-5-yl]pyrimidin-4-amine]",75
8,"Cc1cc(C)n(-c2cc(Nc3nn(C)c(-c4ccc(OC(F)(F)F)cc4)c3C)ncn2)n1 [Example 98, 6-(3,5-dimethyl-1H-pyrazol-1-yl)-N-{1,4-dimethyl-5-[4-(trifluoromethoxy)phenyl]-1H-pyrazol-3-yl}pyrimidin-4-amine]",51
9,"CCc1c(Nc2cc(-n3nc(C)c(Cl)c3C)ncn2)nn(C)c1-c1ccc(F)cc1 [Example 99, 6-(4-chloro-3,5-dimethyl-1H-pyrazol-1-yl)-N-[4-ethyl-5-(4-fluorophenyl)-1-methyl-1H-pyrazol-3-yl]pyrimidin-4-amine]",50
10,"Cc1nn(-c2cc(Nc3c(Cl)c(-c4ccc(F)cc4)nn3C)ncn2)c2ccccc12 [Example 100, N-[4-chloro-3-(4-fluorophenyl)-1-methyl-1H-pyrazol-5-yl]-6-(3-methyl-1H-indazol-1-yl)pyrimidin-4-amine]",360
11,"Cc1cc(C)n(-c2cc(Nc3nn(C)c(-c4ccc(C(F)(F)F)cc4)c3C)ncn2)n1 [Example 101, 6-(3,5-dimethyl-1H-pyrazol-1-yl)-N-{1,4-dimethyl-5-[4-(trifluoromethyl)phenyl]-1H-pyrazol-3-yl}pyrimidin-4-amine]",11.5
12,"Cc1nn(-c2ccc(F)cc2)c(C)c1Nc1cc(-n2nc(C)c3ccccc32)ncn1 [Example 102, N-[1-(4-fluorophenyl)-3,5-dimethyl-1H-pyrazol-4-yl]-6-(3-methyl-1H-indazol-1-yl)pyrimidin-4-amine]",7.3
13,"Cc1nn(-c2ccc(F)cc2)c(C)c1Nc1cc(-n2nc3ccccc3c2C)ncn1 [Example 103, N-[1-(4-fluorophenyl)-3,5-dimethyl-1H-pyrazol-4-yl]-6-(3-methyl-2H-indazol-2-yl)pyrimidin-4-amine]",64
